Source: patent publication US6017911A, “Pyridonecarboxylic acid derivatives and intermediates for the synthesis thereof” (Dainippon Pharmaceutical Co., Ltd., priority 1996, dated 2000)
In brackets after ≈: the same amount, converted by molar mass. Like-named read-outs stand apart in the source and are kept apart here.

Legend:
[1] = test system: Staphylococcus aureus MS16405; assay: In vitro antibacterial activity (MIC), Staphylococcus aureus MS16405; format: cell-based
[2] = test system: Staphylococcus aureus 50774; assay: In vitro antibacterial activity (MIC), Staphylococcus aureus 50774; format: cell-based; conditions: Staphylococcus aureus 50774; read-out: Minimum inhibitory concentration (MIC)
[3] = test system: Staphylococcus aureus 50774; assay: Effect on systemic infection in mice; format: in vivo, mice (male Std-ddy strain); conditions: 168 h; Staphylococcus aureus 50774 i.p. infection; oral, twice (immediately and 6 h after infection); survival 7 days after infection
Procedure: The effects (ED50; mg/kg) on systemic infection in mice were determined as follows: Male Std-ddy strain mice (weighing about 20 g) were infected with each of the pathogenic bacteria shown in Table 2 by administering 5×10^3 viable cells intraperitoneally to each mouse. Then, a suspension of each test compound in 0.4% carboxymethylcellulose was orally administered twice, i.e., immediately after infection and 6 hours after infection. Seven days after infection, the ED50 value was calculated from the survival rate of each mouse group by probit analysis.
As a reference compound, there was used enoxacin [1-ethyl-6-fluoro-1,4-dihydro-4-oxo-7-(1-piperazinyl-1,8-naphthyridine-3-carboxylic acid; hereinafter abbreviated as ENX] that is an excellent antibacterial agent currently on the market.
The test compounds shown in the following Tables 1 and 2 are identified by the respective numbers of the Examples which will be given later.

[4] = test system: Pseudomonas aeruginosa No 12; assay: In vitro antibacterial activity (MIC), Pseudomonas aeruginosa No 12; format: cell-based; conditions: NO12, read-out: Minimum inhibitory concentration (MIC)
[5] = test system: Escherichia coli NIHJ JC-2; assay: In vitro antibacterial activity (MIC), Escherichia coli NIHJ JC-2; format: cell-based; conditions: NIHJJC2, read-out: Minimum inhibitory concentration (MIC)
[6] = Staphylococcus aureus, MS16405, read-out: Minimum inhibitory concentration (MIC)
[7] = Staphylococcus aureus MS16405, read-out: Minimum inhibitory concentration (MIC)

SMILES	MIC [2] [µg/mL]	MIC [4] [µg/mL]	MIC [5] [µg/mL]	MIC [1, 7] [µg/mL]	MIC [1, 6] [µg/mL]	ED50 [3] [mg/kg]
COc1c(N2C[C@H](N)[C@H]3OCC[C@H]32)c(F)cc2c(=O)c(C(=O)O)cn(C3CC3)c12 (relative stereo) [Example 1, 7-[(1R*,5R*,8S*)-8-amino-2-oxa-6-azabicyclo[3.3.0]oct-6-yl]-1-cyclopropyl-6-fluoro-1,4-dihydro-8-methoxy-4-oxoquinoline-3-carboxylic acid]	≤ 0.003	0.39 (≈ 0.967 µM)	0.013 (≈ 0.0322 µM)		0.39 (≈ 0.967 µM)	0.36
COc1c(N2C[C@H](N)[C@H]3OCC[C@H]32)c(F)cc2c(=O)c(C(=O)O)cn([C@@H]3C[C@@H]3F)c12 (relative stereo) [Example 2, 7-[(1R*,5R*,8S*)-8-amino-2-oxa-6-azabicyclo[3.3.0]oct-6-yl]-6-fluoro-1-[(1R,2S)-2-fluorocyclopropyl]-1,4-dihydro-8-methoxy-4-oxoquinoline-3-carboxylicacid]	0.006 (≈ 0.0142 µM)	0.39 (≈ 0.925 µM)	0.013 (≈ 0.0308 µM)		0.39 (≈ 0.925 µM)	0.383
COc1c(N2C[C@H](N)[C@H]3OCC[C@H]32)c(F)c(N)c2c(=O)c(C(=O)O)cn(C3CC3)c12 (relative stereo) [Example 4]	0.006 (≈ 0.0143 µM)	0.78 (≈ 1.86 µM)	0.025 (≈ 0.0597 µM)		0.39 (≈ 0.932 µM)	0.246
CN[C@H]1CN(c2nc3c(cc2F)c(=O)c(C(=O)O)cn3-c2ccc(F)cc2F)[C@@H]2CCO[C@H]12 (relative stereo) [Example 17]	0.05 (≈ 0.109 µM)	0.78 (≈ 1.69 µM)	0.1 (≈ 0.217 µM)			0.78
CN[C@H]1CN(c2c(F)cc3c(=O)c(C(=O)O)cn(C4CC4)c3c2Cl)[C@@H]2CCO[C@H]12 (relative stereo) [Example 20]	0.1 (≈ 0.237 µM)	1.56 (≈ 3.7 µM)	0.05 (≈ 0.119 µM)	3.13 (≈ 7.42 µM)		
N[C@H]1CN(c2nc3c(cc2F)c(=O)c(C(=O)O)cn3C2CC2)[C@@H]2CCO[C@@H]21 (relative stereo) [Example 22]	0.05 (≈ 0.134 µM)	0.39 (≈ 1.04 µM)	≤ 0.003			
N[C@H]1CN(c2cc3c(cc2F)c(=O)c(C(=O)O)cn3C2CC2)[C@@H]2CCO[C@@H]21 (relative stereo) [Example 26]	0.05 (≈ 0.134 µM)	0.39 (≈ 1.04 µM)	0.013 (≈ 0.0348 µM)			
N#Cc1c(N2C[C@@H](N)[C@H]3OCCC[C@H]32)c(F)cc2c(=O)c(C(=O)O)cn(C3CC3)c12 (relative stereo) [Example 34]	0.05 (≈ 0.121 µM)	1.56 (≈ 3.78 µM)	0.05 (≈ 0.121 µM)	6.25 (≈ 15.2 µM)		
N[C@@H]1CN(c2c(F)cc3c(=O)c(C(=O)O)cn(C4CC4)c3c2OC(F)F)[C@@H]2CCO[C@H]12 (relative stereo) [Example 37]	0.05 (≈ 0.114 µM)	3.13 (≈ 7.12 µM)	0.1 (≈ 0.228 µM)	6.25 (≈ 14.2 µM)		
N#Cc1c(N2C[C@H](N)[C@H]3OCC[C@H]32)c(F)cc2c(=O)c(C(=O)O)cn(C3CC3)c12 (relative stereo) [Example 38]	0.1 (≈ 0.251 µM)	3.13 (≈ 7.86 µM)	0.05 (≈ 0.126 µM)			
COc1c(N2C[C@@H](N)[C@H]3OC(C)C[C@H]32)c(F)cc2c(=O)c(C(=O)O)cn(C3CC3)c12 (relative stereo) [Example 40, 7-[(1R*,5R*,8R*)-8-amino-3-methyl-2-oxa-6-azabicyclo[3.3.0]oct-6-yl]-1-cyclopropyl-6-fluoro-1,4-dihydro-8-methoxy-4-oxoquinoline-3-carboxylic acid]	0.025 (≈ 0.0599 µM)	3.13 (≈ 7.5 µM)	0.1 (≈ 0.24 µM)	1.56 (≈ 3.74 µM)		

Continued, in another order:

MIC [2] [µg/mL]	MIC [4] [µg/mL]	MIC [5] [µg/mL]	MIC [1, 7] [µg/mL]	SMILES	MIC [1, 6] [µg/mL]	ED50 [3] [mg/kg]
0.013 (≈ 0.032 µM)	0.2 (≈ 0.492 µM)	0.006 (≈ 0.0148 µM)	1.56 (≈ 3.84 µM)	Nc1c(F)c(N2C[C@H](N)[C@H]3OCC[C@H]32)c(F)c2c1c(=O)c(C(=O)O)cn2C1CC1 (relative stereo) [Example 3, 5-Amino-7-[(1R*,5R*,8S*)-8-amino-2-oxa-6-azabicyclo[3.3.0]oct-6-yl]-1-cyclopropyl-6,8-difluoro-1,4-dihydro-4-oxoquinoline-3-carboxylic acid]		0.398
≤ 0.003	0.78 (≈ 1.87 µM)	0.025 (≈ 0.0599 µM)	0.39 (≈ 0.934 µM)	COc1c(N2C[C@H](N)[C@H]3OCC[C@H]32)c(F)c(C)c2c(=O)c(C(=O)O)cn(C3CC3)c12 (relative stereo) [Example 5]		0.257
0.025 (≈ 0.0599 µM)	1.56 (≈ 3.74 µM)	0.025 (≈ 0.0599 µM)	1.56 (≈ 3.74 µM)	CN[C@H]1CN(c2c(F)cc3c(=O)c(C(=O)O)cn(C4CC4)c3c2OC)[C@@H]2CCO[C@H]12 (relative stereo) [Example 6]		0.292
0.013 (≈ 0.0291 µM)	0.39 (≈ 0.874 µM)	0.25 (≈ 0.56 µM)		N[C@H]1CN(c2nc3c(cc2F)c(=O)c(C(=O)O)cn3-c2ccc(F)cc2F)[C@@H]2CCO[C@@H]21 (relative stereo) [Example 11]		0.579
≤ 0.003	0.39 (≈ 0.928 µM)	0.013 (≈ 0.0309 µM)	0.78 (≈ 1.86 µM)	Nc1c(F)c(N2C[C@@H](N)[C@H]3OCCC[C@H]32)c(F)c2c1c(=O)c(C(=O)O)cn2C1CC1 (relative stereo) [Example 21]		
≤ 0.003	0.78 (≈ 1.93 µM)	0.025 (≈ 0.062 µM)	0.78 (≈ 1.93 µM)	COc1c(N2C[C@@H](N)[C@H]3OCC[C@H]32)c(F)cc2c(=O)c(C(=O)O)cn(C3CC3)c12 (relative stereo) [Example 23]		
0.013 (≈ 0.0324 µM)	0.78 (≈ 1.94 µM)	0.025 (≈ 0.0623 µM)	1.56 (≈ 3.89 µM)	Cc1c(F)c(N2C[C@H](N)[C@H]3OCC[C@H]32)c(C)c2c1c(=O)c(C(=O)O)cn2C1CC1 (relative stereo) [Example 24]		
0.025 (≈ 0.0629 µM)	1.56 (≈ 3.93 µM)	0.025 (≈ 0.0629 µM)	1.56 (≈ 3.93 µM)	C#Cc1c(N2C[C@H](N)[C@H]3OCC[C@H]32)c(F)cc2c(=O)c(C(=O)O)cn(C3CC3)c12 (relative stereo) [Example 27]		
0.025 (≈ 0.056 µM)	0.39 (≈ 0.874 µM)	0.025 (≈ 0.056 µM)		N[C@@H]1CN(c2nc3c(cc2F)c(=O)c(C(=O)O)cn3-c2ccc(F)cc2F)[C@@H]2CCO[C@H]12 (relative stereo) [Example 29]		
0.013 (≈ 0.0305 µM)	0.78 (≈ 1.83 µM)	0.05 (≈ 0.117 µM)	3.13 (≈ 7.34 µM)	Cc1c(F)c(N2C[C@@H](N)[C@H]3OCCC[C@H]32)c(C#N)c2c1c(=O)c(C(=O)O)cn2C1CC1 (relative stereo) [Example 30]		
0.013 (≈ 0.0301 µM)	1.56 (≈ 3.61 µM)	0.1 (≈ 0.231 µM)	0.78 (≈ 1.8 µM)	COc1c(N2C[C@@H](N)[C@H]3OCCC[C@H]32)c(F)c(N)c2c(=O)c(C(=O)O)cn(C3CC3)c12 (relative stereo) [Example 32]		
0.025 (≈ 0.0626 µM)	3.13 (≈ 7.84 µM)	0.05 (≈ 0.125 µM)	1.56 (≈ 3.91 µM)	C=Cc1c(N2C[C@H](N)[C@H]3OCC[C@H]32)c(F)cc2c(=O)c(C(=O)O)cn(C3CC3)c12 (relative stereo) [Example 33]		
0.025 (≈ 0.0599 µM)	3.13 (≈ 7.5 µM)	0.1 (≈ 0.24 µM)	6.25 (≈ 15 µM)	CN[C@@H]1CN(c2c(F)cc3c(=O)c(C(=O)O)cn(C4CC4)c3c2OC)[C@@H]2CCO[C@@H]21 (relative stereo) [Example 35]		
0.025 (≈ 0.0543 µM)	0.78 (≈ 1.69 µM)	0.2 (≈ 0.434 µM)	3.13 (≈ 6.8 µM)	Cc1c(F)c(N2C[C@H](N)[C@H]3OCC[C@H]32)nc2c1c(=O)c(C(=O)O)cn2-c1ccc(F)cc1F (relative stereo) [Example 39, 7-[(1R*,5R*,8S*)-8-amino-2-oxa-6-azabicyclo[3.3.0]oct-6-yl]-6-fluoro-1-(2,4-difluorophenyl)-1,4-dihydro-5-methyl-4-oxo-1,8-naphthyridine-3-carboxylic acid]		
